How the values were obtained:
[1] = tested on: human subjects, savory taste; assay: Human taste test of low sodium tomato juice; type: in vivo; settings: 3 μM cpd; 400 mg Na/8 oz tomato juice
Method: Human taste tests were conducted in order to evaluate the ability of the compounds of the invention to enhance the savory flavor of low sodium tomato juice (which naturally comprises some monosodium glutamate).
The final tomato juice samples for taste testing were prepared so as to comprise 90% (by volume) pre-made low sodium tomato juice stock (pH 4.2, 80˜100 mg Na/8 oz, 16 mM of naturally occurring MSG), 5% (by volume) of stock solutions formulated to produce selected final levels of sodium of final juice, and 5% (by volume) of a stock solution of the compound of the invention. Selected oxalamide compounds of the invention were dissolved in LSB (low sodium phosphate buffer), to provide a stock solution at 20 times the desired final concentration in the final tomato juice. The desired final sodium concentration of the final tomato juice was most experiments 73.6 mM (400 mg sodium in 8 oz. of juice), therefore a stock solution of NaCl was made at 1.48 M NaCl. The pH for the stock solutions was adjusted to 4.2 using a 1 M citric acid solution, and the stock solutions were sonicated to ensure the additive compounds were completely dissolved. […]
Scores were averaged across panelists and sessions, and evaluated using a 2-way ANOVA (factors: panelists and samples) and Duncan's multiple comparison test (alpha=0.05) to determine significant differences in intensity ratings.

[2] = tested on: human panelists, savory taste; assay: Savory taste test with trained human panel (difference from reference); type: in vivo
Method: General Panelist Selection: Basic screening of sensory taste testers: Potential panelists were tested for their abilities to rank and rate intensities of solutions representing the five basic tastes. Panelists ranked and rated intensity of five different concentrations of each of the five following compounds: sucrose (sweet), sodium chloride (salty), citric acid (sour), caffeine (bitter), and monosodium glutamate (savory). In order to be selected for participation in testing, panelists needed to correctly rank and rate samples for intensity, with a reasonable number of errors.
Preliminary Taste Tests: The panelists selected in the above procedure were deemed qualified for performing Preliminary Taste Testing procedures. The preliminary taste tests are used to evaluate new compounds for intensity of basic tastes and off-tastes. A small group of panelists (n=5) taste approximately 5 concentrations of the compound (range typically between 1-100 μM, in half-log cycles, e.g., 1, 3, 10, 30, and 100 μM) in water and in a solution of 12 mM MSG to evaluate enhancement. Panelists rate the five basic tastes (sweet, salty, sour, bitter, and savory) as well as off-tastes (such as chemical, metallic, sulfur) on a labeled magnitude scale. Samples are served in 10 mL portions at room temperature. The purpose of the test is to determine the highest concentration at which there is no objectionable off-taste, and determine if obvious savory taste or enhancement of savory taste exists at any of the concentrations tested.
Trained Panelist Selection: A trained expert panel was used to further evaluate compounds that had been tested with the preliminary taste test.
Panelists for the trained panel were selected from the larger group of qualifying taste panelists. Panelists were further trained on savory taste by ranking and rating experiments using MSG and IMP combinations. Panelists completed a series of ranking, rating, and difference from reference tests with savory solutions. In ranking and rating experiments, panelists evaluated easy MSG concentrations (0, 6, 18, 36 mM) and more difficult MSG concentrations (3, 6, 12, 18 mM MSG) in water.
Compound testing with Trained Panel: Compounds tested by the trained panel were evaluated in difference from reference experiments. […] Test samples were solutions with varying amounts of MSG, IMP, and the compound. Typically, each session compares the reference sample to numerous test samples. […] Compounds were tested against the reference in samples with and without 12 mM MSG. All samples were presented in 10 ml volumes at room temperature. Two sessions were completed for each compound tested to evaluate panel reproducibility.

melting point: 133.5 to 134 °C
Structure (SMILES): COc1cc(C)ccc1CNC(=O)C(=O)NCCc1ccc(C)cn1 [Example 30, N^1-(2-methoxy-4-methylbenzyl)-N^2-(2-(5-methylpyridin-2-yl)ethyl)oxalamide]
Enhancement of the savory taste of 16 mM glutamate (naturally existing) in low sodium tomato juice [1]: by 1.8 to 1.9-fold
Taste Data: cpd concentration as strong as 12 mM MSG ([2]; compound alone, without MSG): 0.3 μM cpd as strong as
Taste Data: cpd concentration at which 12 mM MSG + cpd is as strong as 12 mM MSG + 100 μM IMP ([2]; with 12 mM MSG, reference 12 mM MSG + 100 μM IMP): 12 mM MSG + 0.3 μM cpd as
